{
  "source": "patent US12440581B2",
  "about": "“Fluorophores for super-resolution imaging” (HOWARD HUGHES MEDICAL INSTITUTE, priority 2019, dated 2025)",
  "key": {"[1]": {"molecular_target": "HaloTag protein (Rhodococcus rhodochrous, UniProt P0A3G2, A155T/A167V/A172T/A224E/C128F/C176G/D78G/E160K/E257K/H272N/K175M/K195N/L47V/L88M/N227D/P291S/S2A/S58T/T264A/Y273L/Y87F)", "sequence (P0A3G2 other isoform, or with tags, fused parts or gaps with the stated changes)": "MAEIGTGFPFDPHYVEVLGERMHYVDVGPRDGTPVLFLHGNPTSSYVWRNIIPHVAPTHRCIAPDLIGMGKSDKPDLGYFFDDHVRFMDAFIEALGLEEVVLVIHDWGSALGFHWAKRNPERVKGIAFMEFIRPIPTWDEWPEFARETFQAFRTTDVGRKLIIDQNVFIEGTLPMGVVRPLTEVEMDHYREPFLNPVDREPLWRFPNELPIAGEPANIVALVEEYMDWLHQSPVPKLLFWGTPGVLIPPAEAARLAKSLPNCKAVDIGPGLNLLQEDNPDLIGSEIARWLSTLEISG", "test": "Increase in absorption of HaloTag ligands following attachment to HaloTag protein", "assay_type": "biochemical", "details": "5 μM ligand, 1.5 equiv HaloTag protein", "procedure": "Measurement of increase in absorption of HaloTag ligands 1HTL-10HTL following attachment to HaloTag protein. HaloTag protein was prepared as a 100 μM solution in 75 mM NaCl, 50 mM TRIS·HCl, pH 7.4. Absorption measurements were performed in 1.0-mL quartz cuvettes. HaloTag ligands (5 μM) were dissolved in 10 mM HEPES, pH 7.3 containing 0.1 mg/mL CHAPS. An aliquot of HaloTag protein (75 μL, 7.5 μM, 1.5 equiv) or an equivalent volume of buffer (75 mM NaCl, 50 mM TRIS·HCl, pH 7.4) was added and the resulting mixture was incubated until a consistent absorption signal was observed (˜60 min). Absorption scans are averages (n=2)."}, "[2]": {"tested_on": "histone H2B-SNAP-tag", "test": "Comparison of SNAP ligands 7STL and 10STL in live cells (no-wash)", "assay_type": "cell-based", "details": "1 μM, 1 h", "text": "Comparison of SNAP ligands 7STL and 10STL in live cells."}, "[3]": {"test": "Quantum yield determination", "assay_type": "physicochemical", "details": "absolute, integrating sphere", "procedure": "Quantum yield determination. All reported absolute fluorescence quantum yield values (Φ) were measured in the laboratory under identical conditions using a Quantaurus-QY spectrometer (model C11374, Hamamatsu). This instrument uses an integrating sphere to determine photons absorbed and emitted by a sample. Measurements were carried out using dilute samples (A<0.1) and self-absorption corrections were performed using the instrument software^57 when appropriate. Reported values are averages (n=3)."}, "[4]": {"tested_on": "histone H2B-HaloTag", "test": "Comparison of HaloTag ligands 7HTL and 10HTL in live cells (no-wash)", "assay_type": "cell-based", "details": "500 nM, 30 min", "text": "Comparison of HaloTag ligands 7HTL and 10HTL in live cells."}, "[5]": {"test": "Determination KL-Z and εmax", "assay_type": "physicochemical", "procedure": "Determination KL-Z and εmax. The lactone-zwitterion equilibrium constant (KL-Z) was calculated as described previously^18,41 using equation 1: KL-Z=(εdw/εmax)/(1−εdw/εmax) (1) • where εdw is the extinction coefficient of the dyes in a 1:1 (v/v) dioxane:water solvent mixture containing 0.01% (v/v) triethylamine; the dioxane-water mixture was chosen to give a large range of KL-Z values and the triethylamine additive ensures the rhodamines are in the net neutral form. The emax (maximal extinction coefficient) values were measured in 0.1% (v/v) trifluoroacetic acid (TFA) in 2,2,2-trifluoroethanol (TFE) for rhodaminc 10, and 0.1% (v/v) TFA in ethanol for the Si-rhodamine 8.\nInstead, a solution of strong acid in alcoholic solvents was used (e.g., TFA in […]) to shift the equilibrium to the open form by protonation of the o-carboxyl group. This decades-old procedure^36 allows estimation of the maximal extinction coefficient (εmax) and determination of KL-Z=(ε/εmax)/(1−ε/εmax).\nThe KL-Z was determined using ε values measured in 1:1 dioxane:water to ensure a broad distribution of values.^18 An inverse relationship was observed between KL-Z and fluorogenicity, showing that KL-Z is sufficient to accurately predict the increase in fluorescence of rhodamine dyes. This increase in fluorescence is primarily driven by the increase in absorption; chromogenicity is correlated both with KL-Z and fluorogenicity (FIGS. 11E-11J). Importantly, this trend holds across different rhodamine scaffolds including Si-rhodamines (1-3), carborhodamines (4-5), and classic, oxygen-containing rhodamines (6-7, FIG. 1C). Based on this inverse relationship a simple rubric was determined: a dye with KL-Z<10^−2 should yield a HaloTag ligand with at least 10-fold fluorogenicity (FIG. 1E)."}, "[6]": {"test": "UV-vis and fluorescence spectroscopy", "assay_type": "physicochemical", "details": "10 mM HEPES, pH 7.3", "procedure": "UV-vis and fluorescence spectroscopy. […] Spectroscopy was performed using 1-cm path length, 3.5-mL quartz cuvettes or 1-cm path length, 1.0-ml quartz microcuvettes (Starna Cells). All measurements were taken at ambient temperature (22±2° C.). Absorption spectra were recorded on a Cary Model 100 spectrometer (Agilent). Fluorescence spectra were recorded on a Cary Eclipse fluorometer (Varian). Maximum absorption wavelength (λabs), extinction coefficient (εw), and maximum emission wavelength (λem) were taken in 10 mM HEPES, pH 7.3 buffer unless otherwise noted; reported values for ew are averages (n=3). Normalized spectra are shown for clarity."}, "[7]": {"tested_on": "microtubules", "details": "live-cell no-wash imaging"}},
  "data": [
    {"molecule": "O=C(NCCOCCOCCCCCCCl)c1ccc(C(=O)[O-])c(-c2c3cc(F)c(=[N+]4CC(F)(F)C4)cc-3oc3cc(N4CC(F)(F)C4)c(F)cc23)c1", "note": "[10HTL, JF526-HaloTag ligand]", "values": [
      {"measurement": "increase of absorbance upon conjugation to purified HaloTag protein", "setting": "[1]", "value": "substantial increase"}
    ]},
    {"molecule": "Nc1nc(OCc2ccc(CNC(=O)c3ccc(C(=O)[O-])c(-c4c5cc(F)c(=[N+]6CC(F)(F)C6)cc-5oc5cc(N6CC(F)(F)C6)c(F)cc45)c3)cc2)c2nc[nH]c2n1", "note": "[10STL, JF526-SNAP-tag ligand]", "values": [
      {"measurement": "signal-to-background compared to JF525", "setting": "[2]", "value": "superior signal-to-background"}
    ]},
    {"molecule": "O=C([O-])c1ccccc1-c1c2cc(F)c(=[N+]3CC(F)(F)C3)cc-2oc2cc(N3CC(F)(F)C3)c(F)cc12", "note": "[dye 10, Janelia Fluor 526]", "values": [
      {"measurement": "ϕ (fluorescence quantum yield)", "setting": "[3]", "value": 0.87},
      {"measurement": "signal-to-background compared to JF525", "setting": "[4]", "value": "superior signal-to-background"},
      {"measurement": "εmax", "setting": "[5]; 0.1% TFA in TFE (rhodamine 10), 0.1% TFA in ethanol (Si-rhodamine 8)", "value": "118,000 M^−1cm^−1"},
      {"measurement": "KL-Z (lactone-zwitterion equilibrium constant)", "setting": "[5]; 1:1 (v/v) dioxane:water, 0.01% triethylamine", "value": 0.0050},
      {"measurement": "εw", "setting": "[6]", "value": "19,000 M^−1cm^−1"},
      {"measurement": "λabs", "setting": "[6]", "value": 526, "unit": "nm"},
      {"measurement": "λem", "setting": "[6]", "value": 550, "unit": "nm"}
    ]},
    {"molecule": "JF526-Taxol [10TXL]", "values": [
      {"measurement": "performance relative to SiR-tubulin (1TXL)", "setting": "[7]", "value": "comparable performance"}
    ]}
  ]
}
